Measurements from US20100056508A1, “AMINE DERIVATIVES AND THEIR USE IN BETA-2-ADRENORECEPTOR MEDIATED DISEASES” (ASTRAZENECA AB, priority 2006, published 2010).
Where a name gives a salt, the structure may show the parent alone.

Target: T1, recombinant human α1D receptor (Homo sapiens, UniProt P25100)
T1 construct: expressed in transfected cells; host or cells: human embryonic kidney 293 cells (HEK93 [sic]), membranes
T1 sequence (P25100 1-572): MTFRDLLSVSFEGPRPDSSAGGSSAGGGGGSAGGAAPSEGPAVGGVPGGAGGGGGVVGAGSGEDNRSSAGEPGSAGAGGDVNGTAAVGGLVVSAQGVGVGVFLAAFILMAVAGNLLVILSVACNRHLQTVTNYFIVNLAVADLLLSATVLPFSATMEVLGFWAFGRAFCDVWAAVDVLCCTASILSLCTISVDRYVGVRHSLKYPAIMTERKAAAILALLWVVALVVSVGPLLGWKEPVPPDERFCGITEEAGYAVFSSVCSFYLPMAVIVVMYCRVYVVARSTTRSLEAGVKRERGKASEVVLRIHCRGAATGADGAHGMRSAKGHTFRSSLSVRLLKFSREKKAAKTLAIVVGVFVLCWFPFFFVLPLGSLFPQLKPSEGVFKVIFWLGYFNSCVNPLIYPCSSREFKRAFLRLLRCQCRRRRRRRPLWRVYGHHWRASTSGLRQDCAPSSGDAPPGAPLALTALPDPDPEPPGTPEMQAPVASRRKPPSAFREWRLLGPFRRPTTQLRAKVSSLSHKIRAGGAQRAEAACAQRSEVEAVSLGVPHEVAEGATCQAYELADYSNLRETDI
Test: Adrenergic α1D selectivity assay, [3H]-prazosin binding to membranes
Conditions: inhibition of [3H]-prazosin binding, HEK cell membranes, read-out: α1 bind pIC50 (converted)
Outline: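 Competition binding on HEK293 membranes with recombinant human α1D receptor, 0.3 nM [3H]-prazosin, 50 mM HEPES/1 mM EDTA pH 7.4, 2 h at room temperature; filtration and scintillation counting. Non-specific binding defined with 10 μM BMY7378. pIC50 from four-parameter logistic fit of specific-binding inhibition.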

SMILES | IC50 [nM]
CCOc1cccc(CCNCCC(=O)N(CCNCCc2ccc(O)c3[nH]c(=O)ccc23)C2CCCCCC2)c1 [Example 11, N-Cycloheptyl-3-(3-ethoxyphenethylamino)-N-(2-(2-(8-hydroxy-2-oxo-1,2-dihydroquinolin-5-yl)ethylamino)ethyl)propanamide bis(trifluoroacetate)] | 316
CC[C@@H](C)N(CCNCCc1ccc(O)c2[nH]c(=O)ccc12)C(=O)CCOCCc1ccccc1.Cl [Example 79, (R)—N-sec-Butyl-N-(2-(2-(8-hydroxy-2-oxo-1,2-dihydroquinolin-5-yl)ethylamino)ethyl)-3-phenethoxypropanamide hydrochloride] | 631
CCCC[C@@H](C)N(CCNCCc1ccc(O)c2c1OCC(=O)N2)C(=O)CCNCCc1cccc(F)c1F [Example 53, (R)-3-(2,3-Difluorophenethylamino)-N-(hexan-2-yl)-N-(2-(2-(5-hydroxy-3-oxo-3,4-dihydro-2H-benzo[b][1,4]oxazin-8-yl)ethylamino)ethyl)propanamide bis(trifluoroacetate)] | 200
O=C1COc2c(CCNCCN(C(=O)CCNCCc3cccc(F)c3F)C3CCCCC3)ccc(O)c2N1 [Example 36, N-Cyclohexyl-3-(2,3-difluorophenethylamino)-N-(2-(2-(5-hydroxy-3-oxo-3,4-dihydro-2H-benzo[b][1,4]oxazin-8-yl)ethylamino)ethyl)propanamide bis(trifluoroacetate)] | 398
CC[C@@H](C)N(CCNCCc1ccc(O)c2c1OCC(=O)N2)C(=O)CCNCCc1ccc(Cl)c(Cl)c1 [Example 58, (R)—N-sec-Butyl-3-(3,4-dichlorophenethylamino)-N-(2-(2-(5-hydroxy-3-oxo-3,4-dihydro-2H-benzo[b][1,4]oxazin-8-yl)ethylamino)ethyl)propanamide dihydrochloride] | 100
CC(C)[C@@H](C)N(CCNCCc1ccc(O)c2c1OCC(=O)N2)C(=O)CCNCCc1ccc(Cl)c(Cl)c1 [Example 59, (R)-3-(3,4-Dichlorophenethylamino)-N-(2-(2-(5-hydroxy-3-oxo-3,4-dihydro-2H-benzo[b][1,4]oxazin-8-yl)ethylamino)ethyl)-N-(3-methylbutan-2-yl)propanamide dihydrochloride] | 200
O=C1COc2c(CCNCCN(C(=O)CCOCCc3cccc(F)c3)C3CCCCC3)ccc(O)c2N1 [Example 74, N-Cyclohexyl-3-(3-fluorophenethoxy)-N-(2-(2-(5-hydroxy-3-oxo-3,4-dihydro-2H-benzo[b][1,4]oxazin-8-yl)ethylamino)ethyl)propanamide trifluoroacetate] | 794
O=C1COc2c(CCNCCN(C(=O)CCNCCc3cccc(Cl)c3Cl)C3CCCCC3)ccc(O)c2N1 [Example 29, N-Cyclohexyl-3-(2,3-dichlorophenethylamino)-N-(2-(2-(5-hydroxy-3-oxo-3,4-dihydro-2H-benzo[b][1,4]oxazin-8-yl)ethylamino)ethyl)propanamide bis(trifluoroacetate)] | 126
O=C(CCNCCc1cccc(Cl)c1)N(CCNCCc1ccc(O)c2[nH]c(=O)ccc12)C1CCCCC1 [Example 13, 3-(3-Chlorophenethylamino)-N-cyclohexyl-N-(2-(2-(8-hydroxy-2-oxo-1,2-dihydroquinolin-5-yl)ethylamino)ethyl)propanamide bis(trifluoroacetate)] | 79.4
O=C1COc2c(CCNCCN(C(=O)CCOCCc3ccccc3)C3CCCCC3)ccc(O)c2N1 [Example 70, N-Cyclohexyl-N-(2-(2-(5-hydroxy-3-oxo-3,4-dihydro-2H-benzo[b][1,4]oxazin-8-yl)ethylamino)ethyl)-3-phenethoxypropanamide trifluoroacetate] | 1580
O=C(CCNCCc1ccc(Cl)cc1)N(CCNCCc1ccc(O)c2[nH]c(=O)ccc12)C1CCCCCC1 [Example 4, 3-(4-Chlorophenethylamino)-N-cycloheptyl-N-(2-(2-(8-hydroxy-2-oxo-1,2-dihydroquinolin-5-yl)ethylamino)ethyl)propanamide bis(trifluoroacetate)] | 79.4
CC(C)[C@@H](C)N(CCNCCc1ccc(O)c2[nH]c(=O)ccc12)C(=O)CCOCCc1ccccc1.Cl [Example 80, (R)—N-(2-(2-(8-Hydroxy-2-oxo-1,2-dihydroquinolin-5-yl)ethylamino)ethyl)-N-(3-methylbutan-2-yl)-3-phenethoxypropanamide hydrochloride] | 501
O=C1COc2c(CCNCCN(C(=O)CCNCCc3ccccc3)C3CCCCCC3)ccc(O)c2N1 [Example 24, N-Cycloheptyl-N-(2-(2-(5-hydroxy-3-oxo-3,4-dihydro-2H-benzo[b][1,4]oxazin-8-yl)ethylamino)ethyl)-3-(phenethylamino)propanamide bis(trifluoroacetate)] | 50.1
O=C1COc2c(CCNCCN(C(=O)CCNCCc3ccc(Cl)c(Cl)c3)C3CCCCC3)ccc(O)c2N1 [Example 30, N-Cyclohexyl-3-(3,4-dichlorophenethylamino)-N-(2-(2-(5-hydroxy-3-oxo-3,4-dihydro-2H-benzo[b][1,4]oxazin-8-yl)ethylamino)ethyl)propanamide bis(trifluoroacetate)] | 251
CCCC[C@@H](C)N(CCNCCc1ccc(O)c2c1OCC(=O)N2)C(=O)CCNCCc1ccc(F)c(Cl)c1 [Example 48, (R)-3-(3-Chloro-4-fluorophenethylamino)-N-(hexan-2-yl)-N-(2-(2-(5-hydroxy-3-oxo-3,4-dihydro-2H-benzo[b][1,4]oxazin-8-yl)ethylamino)ethyl)propanamide bis(trifluoroacetate)] | 126
O=C1COc2c(CCNCCN(C(=O)CCNCCc3cccc(Cl)c3)C3CCCCC3)ccc(O)c2N1 [Example 27, 3-(3-Chlorophenethylamino)-N-cyclohexyl-N-(2-(2-(5-hydroxy-3-oxo-3,4-dihydro-2H-benzo[b][1,4]oxazin-8-yl)ethylamino)ethyl)propanamide bis(trifluoroacetate)] | 126
O=C1COc2c(CCNCCN(C(=O)CCNCCc3ccc(F)c(F)c3)C3CCCCCC3)ccc(O)c2N1 [Example 67, N-Cycloheptyl-3-(3,4-difluorophenethylamino)-N-(2-(2-(5-hydroxy-3-oxo-3,4-dihydro-2H-benzo[b][1,4]oxazin-8-yl)ethylamino)ethyl)propanamide bis(trifluoroacetate)] | 200
CCCC[C@@H](C)N(CCNCCc1ccc(O)c2c1OCC(=O)N2)C(=O)CCNCCc1ccc(F)c(F)c1 [Example 52, (R)-3-(3,4-Difluorophenethylamino)-N-(hexan-2-yl)-N-(2-(2-(5-hydroxy-3-oxo-3,4-dihydro-2H-benzo[b][1,4]oxazin-8-yl)ethylamino)ethyl)propanamide bis(trifluoroacetate)] | 200
CCCC[C@@H](C)N(CCNCCc1ccc(O)c2c1OCC(=O)N2)C(=O)CCNCCc1cccc(Cl)c1 [Example 44, (R)-3-(3-Chlorophenethylamino)-N-(hexan-2-yl)-N-(2-(2-(5-hydroxy-3-oxo-3,4-dihydro-2H-benzo[b][1,4]oxazin-8-yl)ethylamino)ethyl)propanamide bis(trifluoroacetate)] | 50.1
O=C1COc2c(CCNCCN(C(=O)CCNCCc3cc(F)cc(F)c3)C3CCCCC3)ccc(O)c2N1 [Example 35, N-Cyclohexyl-3-(3,5-difluorophenethylamino)-N-(2-(2-(5-hydroxy-3-oxo-3,4-dihydro-2H-benzo[b][1,4]oxazin-8-yl)ethylamino)ethyl)propanamide bis(trifluoroacetate)] | 398
O=C1COc2c(CCNCCN(C(=O)CCNCCc3cc(F)cc(Cl)c3)C3CCCCCC3)ccc(O)c2N1 [Example 66, 3-(3-Chloro-5-fluorophenethylamino)-N-cycloheptyl-N-(2-(2-(5-hydroxy-3-oxo-3,4-dihydro-2H-benzo[b][1,4]oxazin-8-yl)ethylamino)ethyl)propanamide bis(trifluoroacetate)] | 398
O=C(CCNCCc1cc(F)ccc1F)N(CCNCCc1ccc(O)c2[nH]c(=O)ccc12)C1CCCCC1 [Example 17, N-Cyclohexyl-3-(2,5-difluorophenethylamino)-N-(2-(2-(8-hydroxy-2-oxo-1,2-dihydroquinolin-5-yl)ethylamino)ethyl)propanamide bis(trifluoroacetate)] | 251
O=C(CCNCCc1cc(F)cc(F)c1)N(CCNCCc1ccc(O)c2[nH]c(=O)ccc12)C1CCCCC1 [Example 15, N-Cyclohexyl-3-(3,5-difluorophenethylamino)-N-(2-(2-(8-hydroxy-2-oxo-1,2-dihydroquinolin-5-yl)ethylamino)ethyl)propanamide bis(trifluoroacetate)] | 501
O=C1COc2c(CCNCCN(C(=O)CCNCCc3cc(F)ccc3F)C3CCCCCC3)ccc(O)c2N1 [Example 64, N-Cycloheptyl-3-(2,5-difluorophenethylamino)-N-(2-(2-(5-hydroxy-3-oxo-3,4-dihydro-2H-benzo[b][1,4]oxazin-8-yl)ethylamino)ethyl)propanamide bis(trifluoroacetate)] | 63.1
